# Residues, ends and D or L forms follow the SMILES beside them. *: point of attachment. Cbz = O=C(OCc1ccccc1)*
# Assays:
# [1] = system: BRD4; assay: Western blot of BRD4 protein, ubiquitination and half-life in DU145 cells; assay type: cell-based, human
# Experimental: Co-Immunoprecipitation (Co-IP) Cells were harvested and lysed by IP buffer (50 mM Tris-HCl, pH 7.4, 150 mM NaCl, 1% Triton X-100, 1% sodium deoxycholate and 1% protease inhibitor cocktails) on ice for more than 15 minutes. Cell lysate was centrifuged for 15 minutes at 13,000 rpm at 4° C., and the supernatant was incubated with primary antibodies and protein A/G agarose beads (Thermo Fisher Scientific) with rotating at 4° C. overnight. The next day, the pellet was washed at least six times with 1×IP buffer on ice, and then subjected to western blotting analysis. Western Blotting
# (§1) Cells were harvested and lysed by IP buffer (50 mM Tris-HCl, pH 7.4, 150 mM NaCl, 1% Triton X-100, 1% sodium deoxycholate and 1% protease inhibitor cocktails) on ice for more than 15 minutes. Cell lysate was centrifuged for 15 minutes at 13,000 rpm at 4° C., and the supernatant was quantified by BCA protein quantification assay. Equal amounts of protein sample were added into 4× sample buffer and boiled for 5 minutes. The sample was subjected to SDS-PAGE analysis and transferred to nitrocellulose membrane. The membrane was blocked by 5% milk for 1 hour at room temperature and incubated with primary antibody at 4° C. overnight. The next day, the membrane was washed three times with 1×TBST and incubated with horseradish peroxidase-conjugated secondary antibodies for 1 hour at room temperature. The protein bands were visualized by SuperSignal West Pico Stable Peroxide Solution (Thermo Fisher Scientific).
# [2] = system: BRD4; assay: Western blot of BRD4 protein in PC-3 cells; assay type: cell-based, human; settings: MG132, 8 h
# Experimental: as §1
# [3] = system: BRD2/3/4; assay: Western blot and RT-qPCR of BRD2/3/4 in LNCaP cells; assay type: cell-based; settings: 8 hours, MLN4924 200 nM, Bortezomib 200 nM, MG132 20 μM
# Experimental: (§2) Cell lysates or immunoprecipitates were subjected to SDS-PAGE, and proteins were transferred to nitrocellulose membranes (GE Healthcare Sciences). The membranes were blocked in Tris-buffered saline (TBS, pH 7.4) containing 5% non-fat milk and 0.1% Tween-20, washed twice in TBS containing 0.1% Tween-20, and incubated with primary antibody overnight at 4° C., followed by secondary antibody for 1 hour at room temperature. The proteins of interest were visualized using ECL chemiluminescence system (Santa Cruz Biotechnology). Densitometry analysis of protein bands was analyzed on the Gel-Pro Analyzer software.
# (§3) Total RNA was isolated from transiently transfected cells using the Trizol reagent (Thermo Fisher Scientific), and cDNA was reverse-transcribed using the Superscript RT kit (TOYOBO, Japan) according to the manufacturer's instructions. PCR amplification was performed using the SYBR Green PCR master mix Kit (TOYOBO, Japan). All quantization was normalized to the level of endogenous control GAPDH. The primer sequences for the SYBR green qPCR used were as follows: BRD2-F: 5′-[…]-3′ (SEQ ID NO:10); BRD2-R: 5′-[…]-3′ (SEQ ID NO:11); BRD3-F: 5′-[…]-3′ (SEQ ID NO:12); BRD3-R: 5′-[…]-[…]-3′ (SEQ ID NO:13); BRD4-F: 5′-[…]-GAG-3′ (SEQ ID NO:14); BRD4-F: 5′-[…]-3′ (SEQ ID NO: 15); RAC1-F: 5′-[…]-3′ (SEQ ID NO:16); RAC1-R: 5′-[…]-3′ (SEQ ID NO:17); FDFT1-F: 5′-ACTAT-[…]-3′ (SEQ ID NO:18); FDFT1-R: 5′-[…]-[…]-3′ (SEQ ID NO:19); DHCR24-F: 5′-[…]-GAGC-3′ (SEQ ID NO:20); DHCR24-R: 5′-[…]-3′(SEQ ID NO:21); DHCR7-F: 5′-[…]-3′ (SEQ ID NO: 22); DHCR7-R: 5′-[…]-3′ (SEQ ID NO:23); MVD-F: 5′-[…]-3′ (SEQ ID NO:24); MVD-R: 5′-CACAC-[…]-3′ (SEQ ID NO:25); PSA-F: 5′-[…]-[…]-3′ (SEQ ID NO:26); PSA-R: 5′-[…]-3′ (SEQ ID NO:27); TMPRSS2-F: 5′-[…]-3′ (SEQ ID NO: 28); TMPRSS2-R: 5′-[…]-3′ (SEQ ID NO:29); MYC-F: 5′-[…]-3′ (SEQ ID NO:30); MYC-R: 5′-CTTGT-[…]-3′ (SEQ ID NO:31); AR-F: 5′-[…]-TCACC-3′ (SEQ ID NO:32); AR-R: 5′-[…]-3′ (SEQ ID NO: 33); GAPDH-F: 5′-[…]-3′ (SEQ ID NO:34); and GAPDH-R: 5′-[…]-3′ (SEQ ID NO:35).
# [4] = system: SPOP and BRD2/3/4; assay: Western blot, co-IP and in vivo ubiquitination assay in 293T cells; assay type: cell-based, human; settings: MG132 20 μM, 8 hours
# Experimental: To immunoprecipitate the ectopically expressed FLAG-tagged proteins, transfected cells were lysed 24 hours post-transfection in BC100 buffer. The whole-cell lysates were immunoprecipitated with the monoclonal anti-FLAG antibody-conjugated M2 agarose beads (Sigma-Aldrich) at 4° C. overnight. After three washes with lysis buffer, followed by two washes with BC100 buffer, the bound proteins were eluted using FLAG-Peptide (Sigma-Aldrich) prepared in BC100 for 3 hours at 4° C. The eluted protein sample was resolved by SDS-PAGE. To immunoprecipitate the endogenous proteins, cells were lysed with 1× cell lysis buffer (Cell Signaling Technology), and the lysate was centrifuged. The supernatant was precleared with protein A/G beads (Sigma-Aldrich) and incubated with the indicated antibody and protein A/G beads at 4° C. overnight. Beads were washed five times with lysis buffer and resuspended in sample buffer and analyzed by SDS-PAGE.
# as §2
# For the in vivo ubiquitination assay, C4-2 cells were transfected with plasmids for HA-Ub, FLAG-BRD4, and other indicated proteins. C ells were treated with 20 μM MG132 for 8 hours before being harvested and lysed with lysis buffer (50 mM Tris-HCl, pH 7.5, 150 mM NaCl, 1% NP40, 0.5% sodium deoxycholate, 1× protease inhibitor cocktail (PIC)). The lysate was subjected to co-immunoprecipitation using anti-FLAG-conjugated agarose beads as described in the Co-IP assay.
# [5] = system: C4-2 cells; assay: Western blot and RT-qPCR of protein and mRNA expression in C4-2 cells; assay type: cell-based, human; settings: 24 hours
# Experimental: as §2, §3, §1
# Total RNA was isolated using TRIzol reagent (Thermo Fisher Scientific). The NanoDrop 2000 spectrophotometer (Thermo Fisher Scientific) was used to assess RNA yield and quality. RNA was reversely transcribed using Superscript II reverse transcriptase (Thermo Fisher Scientific) following manufacturer's instructions. Quantitative real-time PCR was performed by mixing cDNA, gene-specific primers and IQ SYRB Green Supermix and detected by iCycler QTX detection system (Bio-Rad). The 2-ΔCt method was used to quantitate fold changes by normalizing to GAPDH.
# [6] = system: C4-2 xenograft tumors; assay: Prostate cancer xenografts in NSG mice; assay type: in vivo; settings: SPOP-F133V C4-2 xenografts; GDC-0068 100 mg/kg with JQ1 50 mg/kg, 5 days a week, day 21
# Experimental: 6-week-old NOD-SCID IL-2-receptor gamma null (NSG) mice were generated and randomly divided into different experimental groups as indicated. All mice were housed in standard conditions with a 12-hour light/dark cycle and access to food and water ad libitum. For BRD2/3/4 knockdown studies, C4-2 cells (5×10^6), infected with lentivirus expressing empty vector (EV) or HA-SPOP-F133V mutant in combination with control shRNA or BRD2/3/4-specific shRNA, were mixed with Matrigel (in 100 μL 1×PBS plus 100 μL Matrigel (BD Biosciences)) and injected s.c. into the right flank of mice. After xenografts reached the size of about 100 mm^3, vehicle (10% beta cyclodextrin) or JQ1 (Sigma-Aldrich) at 50 mg/kg body weight was administered by i.p. injection 5 days a week. For studies with tumors treated with JQ1 and AKT inhibitor GDC-0068, C4-2 cells (5×10^6) infected with lentivirus expressing empty vector (EV) or HA-SPOP-F133V mutant were mixed with Matrigel (in 100 μL 1×PBS plus 100 μL Matrigel (BD Biosciences)) and injected s.c. into the right flank of mice. […] Growth in tumor volume was measured in a blinded fashion using digital caliper, and tumor volumes were estimated using the formula (L×W2)/2, where L is length of tumor and W is width. The volumes of tumors were compared, and P values were determined by a two-tailed Student's t test. […]
# [7] = system: C4-2 cells; assay: Cell proliferation assay (MTS) and trypan blue assay; assay type: cell-based, human; settings: SPOP-F133V C4-2 cells; GDC-0068 0.2 μM with JQ1 0.25 μM, 5 days
# Experimental: CellTiter 96® AQueous One Solution Cell Proliferation Assay (MTS) (Promega) was used to measure cell growth according to the manufacturer's instructions. Briefly, cells were plated in 96-well plates at a density of 2,000 cells per well. At the indicated times, 20 μL of Cell Titer 96R Aqueous One Solution Reagent was added to medium. After incubating for 1 hour at 37° C. in the cell incubator, cell growth was measured in a microplate reader at 490 nm.
# Trypan blue assay was performed to measure cell growth according to the manufacturer's instructions. Briefly, cells were plated in 6-well plates at a density of about 5×10^4 to about 1×10^5 cells per well. At the indicated time points, cells were trypsinized and suspended in 1 mL 1×PBS. 100 μL cells and 100 μL trypan blue solution (Sigma-Aldrich) were mixed, and the number of viable cells was measured using the Bio-Rad automated cell counter.
# Cell proliferation was measured by using the MTS assay (Promega). Prostate cancer cells (2,000 per well) were seeded in 96-well plates with 100 μL of culture medium. Each well was added with 20 μL of CellTiter 96R AQueous One Solution Reagent (Promega) and absorbance was measured in a microplate reader at 490 nm.
# [8] = system: solid tumors; settings: patients with solid tumors; cited from earlier work
# [9] = DU145 cells, PD0332991 2 μM, 24 hours
# [10] = DU145 cells, PD0332991 with JQ1, 24 hours
smiles,measurement,setting,value
"CC(=O)c1c(C)c2cnc(Nc3ccc(N4CCNCC4)cn3)nc2n(C2CCCC2)c1=O [PD0332991, 6-acetyl-8-cyclopentyl-5-methyl-2-[(5-piperazin-1-ylpyridin-2-yl)amino]pyrido[2,3-d]pyrimidin-7-one]",BRD4 protein expression in DUB3 knockdown cells,"[1]; DU145 cells, DUB3 shRNA, PD0332991 2 μM, 24 hours",little or no further reduction
same,BRD4 polyubiquitination,[1]; [9],increased
same,DUB3-induced upregulation of BRD4 protein,[1]; [9],completely blocked
same,DUB3-mediated deubiquitination of BRD4,[1]; [9],reversed
same,BRD4 protein,"[1]; DU145 cells, PD0332991 2 μM, time-dependent",decreased
same,JQ1-induced inhibition of BRD4 polyubiquitination,[1]; [10],almost completely reversed
same,JQ1-induced upregulation of BRD4 protein,[1]; [10],almost completely abolished
CC(C)C[C@@H](C=O)NC(=O)[C@H](CC(C)C)NC(=O)[C@H](CC(C)C)NC(=O)OCc1ccccc1 [MG132] (Cbz-Leu-Leu-Leu-aldehyde),downregulation of BRD4 proteins caused by DUB3 knockdown,[2],reversed
same,PD0332991-induced decrease of BRD4 protein,"[1]; DU145 cells, 24 hours, co-treatment with MG132",completely impeded
same,decrease of BRD4 protein levels by DUB3 knockdown,"[1]; SPOP F133V-expressing DU145 cells, MG132, 8 hours",blocked
same,BRD2/3/4 protein level,[3],increased
same,decrease of BRD2/3/4 proteins by wild-type SPOP expression,[4],completely reversed
NS(=O)(=O)OC[C@@H]1C[C@@H](n2ccc3c(N[C@H]4CCc5ccccc54)ncnc32)C[C@@H]1O [MLN4924],BRD2/3/4 protein level,[3],accumulation
CC(/C=C/C(=O)NO)=C\[C@@H](C)C(=O)c1ccc(N(C)C)cc1 [trichostatin A],DUB3 protein and mRNA expression,"[5]; C4-2 cells, TSA 1 μM",increased
CC(C)NC[C@@H](C(=O)N1CCN(c2ncnc3c2[C@H](C)C[C@H]3O)CC1)c1ccc(Cl)cc1 [GDC-0068],SPOP mutation-induced activation of AKT downstream pathways,"[5]; SPOP-F133V C4-2 cells, GDC-0068 1 μM, Western blot",abolished
same,"SPOP mutation-conferred resistance to BET inhibitor, tumors in mice",[6],completely overcame
same,"SPOP mutation-conferred resistance to BET inhibitor, cells in culture",[7],completely overcame
same,antitumor efficacy,[8],effective antitumor efficacy
CC(C)C[C@H](NC(=O)[C@H](Cc1ccccc1)NC(=O)c1cnccn1)B(O)O [Bortezomib],BRD2/3/4 protein level,[3],increased

# Source: patent US12290521B2, “Methods and materials for identifying and treating BET inhibitor-resistant cancers” (Mayo Foundation for Medical Education and Research, priority 2018, dated 2025)
